Assay [1] addresses CLIP-mGluR2/SNAP-mGluR7 heterodimer (mGluR2/7) (Rattus norvegicus, UniProt P31421+P35400). In words: smFRET on isolated CLIP-mGluR2/SNAP-mGluR7 heterodimers. The settings on record: for effect on smFRET distribution: 0 glutamate, combination of mGluR2 NAM (11 µM Ro 64-5229 or 1.2 µM MNI-137) with mGluR7 NAM ([…] ADX 71743).
The target of assay [2] is SNAP-mGluR7/SNAP-mGluR7 homodimer (mGluR7/7) (Rattus norvegicus, UniProt P35400). Description: smFRET on isolated immune-purified SNAP-mGluR7/7 dimers.
Source text: (§3) Receptors expressed in HEK293T cells were labeled with a mixture of SNAP-reactive donor and acceptor fluorophores, detergent solubilized, immune-purified and tethered by biotinylated secondary antibodies at low density to coverslips that were passivated with a lawn of polyethylene glycol[13]. We used single-molecule FRET (smFRET) in order to measure the absolute FRET levels and dynamic changes associated with ligand-induced conformational changes in the LBDs. We imaged the donor and acceptor dyes using total internal reflection fluorescence (TIRF) microscopy[13],[31]
Assay [3] addresses T1, SNAP-mGluR2(F756D)/mGluR7 heterodimer (Rattus norvegicus, UniProt P31421+P35400, F756D).
T1 construct: HA (N); expressed in transfected cells; host or cells: HEK293 / HEK293T
Description: Whole-cell patch clamp of GIRK1 current, trans-activation in SNAP-mGluR2(F756D)/mGluR7. The format is cell-based. From the text: We explored this further by examining trans-activation, whereby binding of ligand to one subunit activates G-protein interaction in the partner subunit[46],[47]. To specifically activate only the mGluR2 subunit of the mGluR2/7 heterodimer, we selectively attached a photoswitched tethered ligand to mGluR2. […] SNAP-mGluR2(F756D) was co-expressed with wild-type mGluR7 along with the GIRK1 channel.
(§1) Illumination was applied to the entire field of view using either a Polychrome V monochromator (TILL Photonics) through a 20× objective, or a Lambda DG4 high-speed wavelength switcher (Sutter Instruments) with 380 nm and 500 nm filters through a 40× objective. pClamp software was used for both data acquisition and control of illumination.
On the technique in general: The patch-clamp technique gives a direct electrical read-out from membranes.

Assay [4] deals with SNAP-mGluR2/SNAP-mGluR2 homodimer (mGluR2/2) (Rattus norvegicus, UniProt P31421). Description: smFRET on isolated immune-purified SNAP-mGluR2/2 dimers. The settings on record: 10 nM DCG-IV.
Source text: as §3
Assay [5] deals with T2, SNAP-mGluR7(K319C) homodimer (Rattus norvegicus, UniProt P35400, K319C).
T2 construct: HA (N); made in house; host or cells: HEK293T
Description: smFRET on SNAP-mGluR7(K319C) homodimers conjugated to D-MAG-0. Type of assay: biochemical. The protocol: smFRET was performed on purified SNAP-mGluR7(K319C) homodimers that were labeled with donor and acceptor dyes on the SNAP and D-MAG-0 on K319C in the D-MAG-0 activated state. […] Illumination was applied to the entire field of view using either a Polychrome V monochromator (TILL Photonics) through a 20× objective, or a Lambda DG4 high-speed wavelength switcher (Sutter Instruments) with 380 nm and 500 nm filters through a 40× objective. pClamp software was used for both data acquisition and control of illumination.
(§2) (100 ms time resolution).

The target of assay [6] is T3, CLIP-mGluR2/SNAP-mGluR7(K319C) heterodimer (Rattus norvegicus, UniProt P31421+P35400, K319C).
T3 construct: Flag (N); HA (N); made in house; host or cells: HEK293T
Description: smFRET on CLIP-mGluR2/SNAP-mGluR7(K319C) heterodimers with D-MAG-0 on mGluR7. Type of assay: biochemical. The settings on record: trans D-MAG-0 only on the mGluR7 subunit.
Source text: as §1, §2

The next assay addresses T4, SNAP-mGluR2(F756D) (Rattus norvegicus, UniProt P31421, F756D).
T4 construct: HA (N); expressed in transfected cells; host or cells: HEK293 / HEK293T
In words: Whole-cell patch clamp of GIRK1 current, SNAP-mGluR2(F756D) expressed alone. The format is cell-based. The settings on record: BGAG12 labeled, 380 nm.
Source text: We explored this further by examining trans-activation, whereby binding of ligand to one subunit activates G-protein interaction in the partner subunit[46],[47]. To specifically activate only the mGluR2 subunit of the mGluR2/7 heterodimer, we selectively attached a photoswitched tethered ligand to mGluR2.
as §1

Values joined by “and” are separate entries in the source; they are usually repeats but may differ in a detail not shown here. Equal values may be shown once. “Also recorded” adds a separate entry of the source. Some results are limits rather than exact numbers.

CLIP-mGluR2/SNAP-mGluR7 heterodimer (mGluR2/7), sequence (P31421 19-872): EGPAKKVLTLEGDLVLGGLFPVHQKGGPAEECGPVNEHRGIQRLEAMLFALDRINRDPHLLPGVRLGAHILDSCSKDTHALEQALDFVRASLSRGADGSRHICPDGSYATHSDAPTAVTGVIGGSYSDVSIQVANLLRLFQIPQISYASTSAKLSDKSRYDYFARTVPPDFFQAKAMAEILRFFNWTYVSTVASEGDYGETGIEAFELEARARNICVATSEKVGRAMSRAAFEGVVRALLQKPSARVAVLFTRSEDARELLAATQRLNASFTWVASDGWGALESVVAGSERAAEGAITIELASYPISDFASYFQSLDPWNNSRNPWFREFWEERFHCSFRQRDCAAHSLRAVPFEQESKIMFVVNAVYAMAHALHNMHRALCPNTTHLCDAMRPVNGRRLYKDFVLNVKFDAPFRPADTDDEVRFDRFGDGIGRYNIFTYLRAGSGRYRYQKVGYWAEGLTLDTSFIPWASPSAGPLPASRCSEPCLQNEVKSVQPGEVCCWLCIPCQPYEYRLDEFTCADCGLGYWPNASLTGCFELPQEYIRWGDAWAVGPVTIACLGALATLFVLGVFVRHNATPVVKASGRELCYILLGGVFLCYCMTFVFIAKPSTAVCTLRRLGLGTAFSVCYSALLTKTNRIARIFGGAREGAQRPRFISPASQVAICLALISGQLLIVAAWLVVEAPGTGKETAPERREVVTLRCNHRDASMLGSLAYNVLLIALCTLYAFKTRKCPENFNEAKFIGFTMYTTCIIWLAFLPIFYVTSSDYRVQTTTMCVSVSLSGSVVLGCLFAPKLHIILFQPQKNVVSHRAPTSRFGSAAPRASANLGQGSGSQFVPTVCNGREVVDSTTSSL
CLIP-mGluR2/SNAP-mGluR7 heterodimer (mGluR2/7), sequence (P35400 35-915): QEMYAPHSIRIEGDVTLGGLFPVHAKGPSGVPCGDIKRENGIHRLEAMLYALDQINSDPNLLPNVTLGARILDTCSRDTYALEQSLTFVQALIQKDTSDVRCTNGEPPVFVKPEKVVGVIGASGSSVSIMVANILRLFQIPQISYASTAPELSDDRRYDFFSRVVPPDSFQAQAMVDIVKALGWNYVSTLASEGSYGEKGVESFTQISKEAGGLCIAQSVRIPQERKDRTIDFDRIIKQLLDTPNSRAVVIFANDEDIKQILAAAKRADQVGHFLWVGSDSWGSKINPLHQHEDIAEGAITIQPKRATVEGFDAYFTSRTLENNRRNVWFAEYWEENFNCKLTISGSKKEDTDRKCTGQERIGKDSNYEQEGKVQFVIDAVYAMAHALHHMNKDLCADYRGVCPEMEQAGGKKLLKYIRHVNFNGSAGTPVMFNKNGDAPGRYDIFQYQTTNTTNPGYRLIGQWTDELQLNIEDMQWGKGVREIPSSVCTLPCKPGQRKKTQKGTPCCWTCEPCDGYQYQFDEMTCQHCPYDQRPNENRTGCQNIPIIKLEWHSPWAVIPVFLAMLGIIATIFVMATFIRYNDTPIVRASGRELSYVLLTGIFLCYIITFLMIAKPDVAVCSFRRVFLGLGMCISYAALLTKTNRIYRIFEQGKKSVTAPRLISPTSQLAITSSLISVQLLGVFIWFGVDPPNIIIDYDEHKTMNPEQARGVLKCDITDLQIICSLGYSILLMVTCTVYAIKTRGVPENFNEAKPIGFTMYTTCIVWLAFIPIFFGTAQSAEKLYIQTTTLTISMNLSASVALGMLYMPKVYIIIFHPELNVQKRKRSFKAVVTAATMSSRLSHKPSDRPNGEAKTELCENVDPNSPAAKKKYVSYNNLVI
T1 sequence (P31421 19-872 F756D): as the sequence (P31421 19-872) above, with F738D counted along it
T1 sequence (P35400 35-915): as the sequence (P35400 35-915) above
SNAP-mGluR7/SNAP-mGluR7 homodimer (mGluR7/7), sequence (P35400 35-915): as above
T2 sequence (P35400 35-915 K319C): as the sequence (P35400 35-915) above, with K285C counted along it
T3 sequence (P31421 19-872): as the sequence (P31421 19-872) above
T3 sequence (P35400 35-915 K319C): as the sequence (P35400 35-915) above, with K285C counted along it
SNAP-mGluR2/SNAP-mGluR2 homodimer (mGluR2/2), sequence (P31421 19-872): as the sequence (P31421 19-872) above
T4 sequence (P31421 19-872 F756D): as the sequence (P31421 19-872) above, with F738D counted along it

Turning to `Clc1cccc(Cl)c1/C(=C/n1cncn1)OC1CCCCCC1` [Ro 64-5229], the “effect on smFRET distribution” value in assay [1] was “narrowed the smFRET distribution and shifted it to the right”.
For `N[C@@H](CCP(=O)(O)C(O)c1ccc(OCC(=O)O)cc1)C(=O)O` (some centres unmarked) [LSP4-2022], the smFRET traces result in assay [2] (20 μM LSP4-2022) is listed as “frequent transitions to the low FRET activated conformation”. The “normalized low FRET area (Supplemental Figure 2a), mGluR7 LSP4” value amounted to 1 in assay [2] (agonist 0.003 (M)); 0.8692 in assay [2] (agonist 1.00E-03 (M)); 0.03798 in assay [2] (agonist 1.00E-06 (M)); 0.02088 in assay [2] (agonist 1.00E-07 (M)); 0.3163 in assay [2] (agonist 2.00E-05 (M)). In addition, the receptor occupancy at 1000 µM in assay [2] (read-out: occupancy of the activated conformation) was more than 50%. For the same compound, the receptor occupancy at 3000 µM in assay [2] (read-out: occupancy of the low FRET conformation) was approximately 65%. Moreover, in assay [2] (smFRET), the “efficacy, fold greater than that of glutamate” value was “at least 6 fold”. For the same compound, the “shift of smFRET distribution” value in assay [1] (1 µM LSP4-2022) was “slightly more than half-way toward the activated low FRET state”. Also, the activation entry in assay [1] (1 mM LSP4-2022) was “almost complete”. In assay [1] (smFRET), the “apparent affinity of mGluR7 subunit, fold higher than when partnered with another mGluR7” value is listed as “approximately 1000 fold”.
`CCc1nc2c(o1)CC(c1ccc(C)cc1C)CC2=O` (centres unmarked) [ADX71743]: in assay [1], the “effect on smFRET distribution” value was “narrowed the smFRET distribution and shifted it to the right”.
As to `N[C@H](C(=O)O)C1[C@@H](C(=O)O)[C@@H]1C(=O)O` (some centres unmarked) [DCG-IV], the “Norm. (1 nM DCG-IV), Over 20% Photo” value in assay [3] (1 nM DCG-IV, summary of cells Over 20% Photo) was found to be 0.04748. The “Norm. (1 nM DCG-IV), Under 15% Photo” value in assay [3] (1 nM DCG-IV, summary of cells Under 15% Photo) turned out to be 0.01667. Further, in assay [3] (10 nM DCG-IV, summary of cells Over 20% Photo), the “Norm. (10 nM DCG-IV), Over 20% Photo” value was 0.2749. Besides, the “Norm. (10 nM DCG-IV), Under 15% Photo” value in assay [3] (10 nM DCG-IV, summary of cells Under 15% Photo) is reported as 0.22. Also, the “Norm. (100 nM DCG-IV), Over 20% Photo” value in assay [3] (100 nM DCG-IV, summary of cells Over 20% Photo) is given as 0.5816. In addition, the “Norm. (100 nM DCG-IV), Under 15% Photo” value in assay [3] (100 nM DCG-IV, summary of cells Under 15% Photo) worked out at 0.3011. Further, the “Norm. (1 uM DCG-IV)” value in assay [3] (1 uM DCG-IV normalised to 1 mM Glu, single cells) is 0.9403 and 0.9452 and 0.7554 and 0.9507. Moreover, the “Norm. (1 uM DCG-IV), Over 20% Photo” value in assay [3] (1 uM DCG-IV, summary of cells Over 20% Photo) is 0.9454. Further, the “Norm. (1 uM DCG-IV), Under 15% Photo” value in assay [3] (1 uM DCG-IV, summary of cells Under 15% Photo) worked out at 0.7554. In assay [3] (10 uM DCG-IV normalised to 1 mM Glu, single cells), the “Norm. (10 uM DCG-IV)” value is listed as 1. Further, the “Current, 10 uM DCG-IV” value in assay [3] (10 uM DCG-IV, single cells) was -498.53. Besides, the “Norm. (10 uM DCG-IV), Over 20% Photo” value in assay [3] (10 uM DCG-IV, summary of cells Over 20% Photo) is reported as 1. The “DCG-IV GIRK concentration-response relation compared to mGluR2/2” value in assay [3] (patch clamp, foot of the relation) was “left-shifted; also recorded: more sensitive”. The “occupancy of the activated conformation” value in assay [4] was ~ 5%; in assay [1] (10 nM DCG-IV), ~ 25%. Also, the “activated conformation occupancy, fold greater than mGluR2/2” value in assay [1] (10 nM DCG-IV) is listed as ~ 5 fold.
As for MNI-137, the “effect on smFRET distribution” value in assay [1] is “narrowed the smFRET distribution and shifted it to the right”.
In the case of `NC(CC(CCC(=O)Nc1ccc(N=Nc2ccc(NC(=O)CN3C(=O)C=CC3=O)cc2)cc1)C(=O)O)C(=O)O` (mixture of isomers) [D-MAG-0, maleimide-azobenzene-glutamate], the “stabilization of activated conformation, fold more effective than saturating free glutamate” value in assay [5] (trans D-MAG-0) is “approximately 5 fold”. Further, in assay [5] (trans D-MAG-0 on both subunits), the “occupancy of the activated low FRET state” value is listed as ~ 50%. Further, in assay [6], the “time in the activated low-FRET state” value is on record as ~ 90%.
On to `Nc1nc(OCc2ccc(CNC(=O)CCc3cn(CCOCCOCCOCCOCCOCCOCCOCCOCCOCCOCCOCCOCCC(=O)NCC(=O)Nc4ccc(/N=N/c5ccc(NC(=O)CCC[C@@H](C[C@H](N)C(=O)O)C(=O)O)cc5)cc4)nn3)cc2)c2nc[nH]c2n1` [BGAG12, benzylguanine azobenzene glutamate], for which, on SNAP-mGluR2(F756D), the photocurrent entry was “no photocurrent”.

The values are drawn from PMC6895203, “Conformational pathway provides unique sensitivity to a synaptic mGluR” (Nature Communications, 2019).
